# Results from patent publication US11363816B2, “4-amino-6-(heterocyclic)picolinates and 6-amino-2-(heterocyclic)pyramidine-4-carboxylates and their use as herbicides” (Dow AgroSciences LLC, priority 2017, dated 2022).
# Legend:
# Assay type in all cases: in vivo
# [1] = test system: STEME=Stellaria media (L.) Vill. (common chickweed); assay: Postemergence field trial, Nisku, Alberta, Canada
# Description: (§1) Field trials were established in Canada (in Ellerslie, Alberta; Nisku, Alberta and Hanley, Saskatchewan) to evaluate the efficacy of Compound 5, Compound 6, and Compound 7. Trials were designed as randomized complete blocks with four replicates. Trials were established in spring wheat with natural weed population with plot sizes of 2-3 meters (m) by 8-10 m (width×length). The crops were grown using normal cultural practices for fertilization, seeding, and maintenance to ensure good growth of the crop.
# (§2) All herbicide treatments were applied post-emergence with applications made to the crops at BBCH (Phenological development stages of a plant) 14 to 22 growth stage. Herbicides were applied with backpack or bicycle sprayers using carbon dioxide (CO2) as a propellant. The sprayers utilized flat fan air-induction spray nozzles calibrated to deliver a uniform spray pattern that provided thorough coverage of the foliage using a 100 L/ha spray volume. All treatments were applied with methylated seed oil (MSO) at 1.25% v/v. Phytotoxicity to the weeds was assessed visually at several intervals after application as percent overall control, compared to an untreated control plot. In general, four replicates were assessed for each treatment. All treatment results are an average of four replicates.
# (§3) Compound 5, Compound 6 and Compound 7 were applied as emulsifiable concentrate (EC) formulations at 100 g ae/L EC, respectively.
# [2] = test system: CHEAL=Chenopodium album L. (common lambsquarters); assay: Postemergence field trial, Nisku, Alberta, Canada
# Description: as §1, §2, §3
# [3] = test system: VERHE=Veronica hederifolia (ivyleaved speedwell); assay: Postemergence field trial, Banares, Spain
# Description: (§4) Field trials were established in Spain (Banares and Granon) and Germany (Bielefeld) to evaluate the efficacy of Compound 5, Compound 6, and Compound 7. Trials were designed as randomized complete blocks with three to four replicates. Trials were established in winter wheat with natural weed population with plot sizes of 2-2.5 meters (m) by 6-8 m (width×length). The crops were grown using normal cultural practices for fertilization, seeding, and maintenance to ensure good growth of the crop. All herbicide treatments were applied post-emergence with applications made to the crops at the BBCH 21 to 23 growth stage. Herbicides were applied with backpack or bicycle sprayers using air as a propellant. The sprayers utilized flat fan air-induction spray nozzles calibrated to deliver a uniform spray pattern that provided thorough coverage of the foliage using a 200 L/ha spray volume. All treatments were applied with methylated seed oil (MSO) at 1.25% v/v. Phytotoxicity to the weeds was assessed visually at several intervals after application as percent overall control, compared to an untreated control plot. In general, three to four replicates were assessed for each treatment. All treatment results are an average of three or four replicates. Compound 5, Compound 6, and Compound 7 were applied as emulsifiable concentrate (EC) formulations at 100 g ae/L EC, respectively.
# [4] = test system: PAPRH=Papaver rhoeas L. (common poppy); assay: Postemergence field trial, Banares, Spain
# Description: as §4
# [5] = test system: FUMOF=Fumaria officinalis (common fumitory); assay: Postemergence field trial, Banares, Spain
# Description: as §4
# [6] = test system: CENCY=Centaurea cyanus (cornflower); assay: Postemergence field trial, Bielefed, Germany
# Description: as §4
# [7] = test system: PAPRH=Papaver rhoeas L. (common poppy); assay: Postemergence field trial, Bielefed, Germany
# Description: as §4
# weeds = assay: Herbicidal activity, overall conclusion from greenhouse and field results; conditions: summary of Tables 1 to 8
# From the text: These new chemical herbicides offer a broader spectrum of weed control, higher activity against weeds, and provide a way to address the management of weeds that developed resistance with respect to herbicides traditionally used to control them.
# [8] = test system: POLCO=Polygonum convolvulus L. (wild buckwheat); assay: Postemergence field trial, Hanley, Saskatchewan, Canada; conditions: 66DAAA
# Description: as §1, §2, §3
# [9] = test system: CHEAL=Chenopodium album L. (common lambsquarters); assay: as above; conditions: 66DAAA
# Description: as §1, §2, §3
# [10] = test system: KCHSC=Kochia scoparia (L.) Schrad. (Kochia); assay: as above; conditions: 66DAAA
# Description: as §1, §2, §3
# [11] = test system: VERHE=Veronica hederifolia (ivyleaved speedwell); assay: Postemergence field trial, Granon, Spain (Table 5)
# Description: as §4
# [12] = test system: PAPRH=Papaver rhoeas L. (common poppy); assay: Postemergence field trial, Granon, Spain (Table 5)
# Description: as §4
# [13] = test system: PAPRH=Papaver rhoeas L. (common poppy); assay: Postemergence field trial, Granon, Spain (Table 7)
# Description: as §4
# [14] = test system: SINAR=Sinapis arvensis L. (wild mustard); assay: Postemergence field trial, Granon, Spain (Table 7)
# Description: as §4
compound,measurement,setting,value
"N#CCOC(=O)c1nc(-c2ccc3cc[nH]c3c2F)c(F)c(N)c1Cl [Compound 6, cyanomethyl 4-amino-3-chloro-5-fluoro-6-(7-fluoro-1H-indol-6-yl)picolinate]",Percent (%) Visual Control STEME 28DAAA,[1]; 10 g ae/ha,99%
same,Percent (%) Visual Control STEME 51DAAA,[1]; 10 g ae/ha,87.5%
same,Percent (%) Visual Control STEME 28DAAA,[1]; 20 g ae/ha,96%
same,Percent (%) Visual Control STEME 51DAAA,[1]; 20 g ae/ha,87.8%
same,Percent (%) Visual Control STEME 28DAAA,[1]; 40 g ae/ha,99%
same,Percent (%) Visual Control STEME 51DAAA,[1]; 40 g ae/ha,94.5%
same,Percent (%) Visual Control CHEAL 51DAAA,[2]; 10 g ae/ha,98%
same,Percent (%) Visual Control CHEAL 51DAAA,[2]; 20 g ae/ha,98%
same,Percent (%) Visual Control CHEAL 51DAAA,[2]; 40 g ae/ha,98%
same,Percent (%) Visual Control VERHE 66DAAA,[3]; 5 g ae/ha,60%
same,Percent (%) Visual Control VERHE 66DAAA,[3]; 10 g ae/ha,81.7%
same,Percent (%) Visual Control VERHE 66DAAA,[3]; 20 g ae/ha,91%
same,Percent (%) Visual Control PAPRH 66DAAA,[4]; 5 g ae/ha,60%
same,Percent (%) Visual Control PAPRH 66DAAA,[4]; 10 g ae/ha,75%
same,Percent (%) Visual Control PAPRH 66DAAA,[4]; 20 g ae/ha,91%
same,Percent (%) Visual Control FUMOF 83DAAA,[5]; 5 g ae/ha,41.7%
same,Percent (%) Visual Control FUMOF 83DAAA,[5]; 10 g ae/ha,69.3%
same,Percent (%) Visual Control FUMOF 83DAAA,[5]; 20 g ae/ha,96%
same,Percent (%) Visual Control CENCY 85DAAA,[6]; 5 g ae/ha,60%
same,Percent (%) Visual Control CENCY 85DAAA,[6]; 10 g ae/ha,92.5%
same,Percent (%) Visual Control CENCY 85DAAA,[6]; 20 g ae/ha,97%
same,Percent (%) Visual Control PAPRH 85DAAA,[7]; 5 g ae/ha,94.5%
same,Percent (%) Visual Control PAPRH 85DAAA,[7]; 10 g ae/ha,97.3%
same,Percent (%) Visual Control PAPRH 85DAAA,[7]; 20 g ae/ha,99.8%
same,herbicidal activity (overall conclusion),weeds,superior herbicidal activity over Compound 7
same,Percent (%) Visual Control POLCO,[8]; 10 g ae/ha,47.5%
same,Percent (%) Visual Control POLCO,[8]; 20 g ae/ha,68.8%
same,Percent (%) Visual Control POLCO,[8]; 40 g ae/ha,85.8%
same,Percent (%) Visual Control CHEAL,[9]; 10 g ae/ha,95%
same,Percent (%) Visual Control CHEAL,[9]; 20 g ae/ha,98.3%
same,Percent (%) Visual Control CHEAL,[9]; 40 g ae/ha,99%
same,Percent (%) Visual Control KCHSC,[10]; 10 g ae/ha,62%
same,Percent (%) Visual Control KCHSC,[10]; 20 g ae/ha,81.5%
same,Percent (%) Visual Control KCHSC,[10]; 40 g ae/ha,92.5%
same,Percent (%) Visual Control VERHE 34DAAA,[11]; 5 g ae/ha,55%
same,Percent (%) Visual Control VERHE 34DAAA,[11]; 10 g ae/ha,77.7%
same,Percent (%) Visual Control VERHE 34DAAA,[11]; 20 g ae/ha,86%
same,Percent (%) Visual Control PAPRH 84DAAA,[12]; 5 g ae/ha,68.7%
same,Percent (%) Visual Control PAPRH 84DAAA,[12]; 10 g ae/ha,81%
same,Percent (%) Visual Control PAPRH 84DAAA,[12]; 20 g ae/ha,90%
same,Percent (%) Visual Control PAPRH 68DAAA,[13]; 5 g ae/ha,55%
same,Percent (%) Visual Control PAPRH 68DAAA,[13]; 10 g ae/ha,69.3%
same,Percent (%) Visual Control PAPRH 68DAAA,[13]; 20 g ae/ha,85.3%
same,Percent (%) Visual Control SINAR 48DAAA,[14]; 5 g ae/ha,82.7%
same,Percent (%) Visual Control SINAR 48DAAA,[14]; 10 g ae/ha,95%
same,Percent (%) Visual Control SINAR 48DAAA,[14]; 20 g ae/ha,95.2%
"Nc1c(F)c(-c2ccc3cc[nH]c3c2F)nc(C(=O)OCc2ccccc2)c1Cl [Compound 7, benzyl 4-amino-3-chloro-5-fluoro-6-(7-fluoro-1H-indol-6-yl)picolinate, reference compound]",Percent (%) Visual Control STEME 28DAAA,[1]; 10 g ae/ha,76.7%
same,Percent (%) Visual Control STEME 51DAAA,[1]; 10 g ae/ha,76.3%
same,Percent (%) Visual Control STEME 28DAAA,[1]; 20 g ae/ha,76.7%
same,Percent (%) Visual Control STEME 51DAAA,[1]; 20 g ae/ha,80%
same,Percent (%) Visual Control STEME 28DAAA,[1]; 40 g ae/ha,99%
same,Percent (%) Visual Control STEME 51DAAA,[1]; 40 g ae/ha,85.8%
same,Percent (%) Visual Control CHEAL 51DAAA,[2]; 10 g ae/ha,98%
same,Percent (%) Visual Control CHEAL 51DAAA,[2]; 20 g ae/ha,98%
same,Percent (%) Visual Control CHEAL 51DAAA,[2]; 40 g ae/ha,98%
same,Percent (%) Visual Control VERHE 66DAAA,[3]; 5 g ae/ha,50%
same,Percent (%) Visual Control VERHE 66DAAA,[3]; 10 g ae/ha,56%
same,Percent (%) Visual Control VERHE 66DAAA,[3]; 20 g ae/ha,70%
same,Percent (%) Visual Control PAPRH 66DAAA,[4]; 5 g ae/ha,53.3%
same,Percent (%) Visual Control PAPRH 66DAAA,[4]; 10 g ae/ha,62.7%
same,Percent (%) Visual Control PAPRH 66DAAA,[4]; 20 g ae/ha,75%
same,Percent (%) Visual Control FUMOF 83DAAA,[5]; 5 g ae/ha,26.7%
same,Percent (%) Visual Control FUMOF 83DAAA,[5]; 10 g ae/ha,45%
same,Percent (%) Visual Control FUMOF 83DAAA,[5]; 20 g ae/ha,58.3%
same,Percent (%) Visual Control CENCY 85DAAA,[6]; 5 g ae/ha,32.5%
same,Percent (%) Visual Control CENCY 85DAAA,[6]; 10 g ae/ha,53.8%
same,Percent (%) Visual Control CENCY 85DAAA,[6]; 20 g ae/ha,62.5%
same,Percent (%) Visual Control PAPRH 85DAAA,[7]; 5 g ae/ha,66.3%
same,Percent (%) Visual Control PAPRH 85DAAA,[7]; 10 g ae/ha,78.8%
same,Percent (%) Visual Control PAPRH 85DAAA,[7]; 20 g ae/ha,80%
same,Percent (%) Visual Control POLCO,[8]; 10 g ae/ha,46.3%
same,Percent (%) Visual Control POLCO,[8]; 20 g ae/ha,63.3%
same,Percent (%) Visual Control POLCO,[8]; 40 g ae/ha,70%
same,Percent (%) Visual Control CHEAL,[9]; 10 g ae/ha,95.5%
same,Percent (%) Visual Control CHEAL,[9]; 20 g ae/ha,98.5%
same,Percent (%) Visual Control CHEAL,[9]; 40 g ae/ha,98.8%
same,Percent (%) Visual Control KCHSC,[10]; 10 g ae/ha,45%
same,Percent (%) Visual Control KCHSC,[10]; 20 g ae/ha,72%
same,Percent (%) Visual Control KCHSC,[10]; 40 g ae/ha,78.8%
same,Percent (%) Visual Control VERHE 34DAAA,[11]; 5 g ae/ha,51.7%
same,Percent (%) Visual Control VERHE 34DAAA,[11]; 10 g ae/ha,58.3%
same,Percent (%) Visual Control VERHE 34DAAA,[11]; 20 g ae/ha,79.3%
same,Percent (%) Visual Control PAPRH 84DAAA,[12]; 5 g ae/ha,59.3%
same,Percent (%) Visual Control PAPRH 84DAAA,[12]; 10 g ae/ha,68.3%
same,Percent (%) Visual Control PAPRH 84DAAA,[12]; 20 g ae/ha,80.3%
same,Percent (%) Visual Control PAPRH 68DAAA,[13]; 5 g ae/ha,45%
same,Percent (%) Visual Control PAPRH 68DAAA,[13]; 10 g ae/ha,60%
same,Percent (%) Visual Control PAPRH 68DAAA,[13]; 20 g ae/ha,74.3%
same,Percent (%) Visual Control SINAR 48DAAA,[14]; 5 g ae/ha,73.3%
same,Percent (%) Visual Control SINAR 48DAAA,[14]; 10 g ae/ha,80.7%
same,Percent (%) Visual Control SINAR 48DAAA,[14]; 20 g ae/ha,89.3%
